Measurements published in patent publication US8802597B2, “Herbicidal pyrimidines” (E I du Pont de Nemours and Company, priority 2003, dated 2014).
Like-named read-outs stand apart in the source and are kept apart here.

Legend:
Format in all cases: in vivo
[1] = tested on: Surinam grass (Brachiaria decumbens); experiment: Test B pre/postemergence; conditions: Urochloa decumbens; for pest or weed control at 125 g/ha: 125 g ai/ha; for pest or weed control at 62 g/ha: 62 g ai/ha
Method in brief: (§1)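 Scores reflect visual comparison with untreated controls, where 0 means no effect and 100 complete control. Plants stayed 13 to 15 days in the greenhouse after pre- or postemergence treatment with compounds carried in a non-phytotoxic solvent and surfactant.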

[2] = tested on: barnyardgrass (Echinochloa crus-galli); experiment: Test B pre/postemergence; conditions: Echinochloa crus-galli, scale 0 to 100 (0 no effect, 100 complete control); for pest or weed control at 62 g/ha: 62 g ai/ha; for pest or weed control at 125 g/ha: 125 g ai/ha
Method in brief: as §1

[3] = tested on: cocklebur (Xanthium strumarium); experiment: Test B pre/postemergence; conditions: Xanthium strumarium; for pest or weed control at 62 g/ha: 62 g ai/ha; for pest or weed control at 125 g/ha: 125 g ai/ha
Method in brief: as §1

corn (Zea mays) = experiment: Test B pre/postemergence; conditions: Zea mays
Method in brief: as §1

[4] = tested on: crabgrass (Digitaria sanguinalis); experiment: Test B pre/postemergence; conditions: Digitaria sanguinalis; for pest or weed control at 62 g/ha: 62 g ai/ha; for pest or weed control at 125 g/ha: 125 g ai/ha
Method in brief: as §1

[5] = tested on: giant foxtail (Setaria faberii); experiment: Test B pre/postemergence; conditions: Setaria faberi; for pest or weed control at 125 g/ha: 125 g ai/ha; for pest or weed control at 62 g/ha: 62 g ai/ha
Method in brief: as §1

[6] = tested on: lambsquarters (Chenopodium album); experiment: Test B pre/postemergence; conditions: Chenopodium album; for pest or weed control at 62 g/ha: 62 g ai/ha; for pest or weed control at 125 g/ha: 125 g ai/ha
Method in brief: as §1

[7] = tested on: morningglory (Ipomoea coccinea); experiment: Test B pre/postemergence; conditions: Ipomoea; for pest or weed control at 62 g/ha: 62 g ai/ha; for pest or weed control at 125 g/ha: 125 g ai/ha
Method in brief: as §1

[8] = tested on: pigweed (Amaranthus retroflexus); experiment: Test B pre/postemergence; conditions: Amaranthus retroflexus; for pest or weed control at 62 g/ha: 62 g ai/ha; for pest or weed control at 125 g/ha: 125 g ai/ha
Method in brief: as §1

[9] = tested on: velvetleaf (Abutilon theophrasti); experiment: Test B pre/postemergence; conditions: Abutilon theophrasti; for pest or weed control at 62 g/ha: 62 g ai/ha; for pest or weed control at 125 g/ha: 125 g ai/ha
Method in brief: as §1

[10] = tested on: wheat (Triticum aestivum); experiment: Test B pre/postemergence; conditions: Triticum aestivum, scale 0 to 100 (0 no effect, 100 complete control); for plant injury at 62 g/ha: 62 g ai/ha; for plant injury at 125 g/ha: 125 g ai/ha
Method in brief: as §1

[11] = tested on: blackgrass (Alopecurus myosuroides); experiment: Test B postemergence; conditions: Alopecurus myosuroides, post-emergence, scale 0 to 100 (0 no effect, 100 complete control), read-out: Blackgrass plant response rating
Method in brief: as §1

wild oat (Avena fatua) = experiment: Test B postemergence; conditions: Avena fatua, post-emergence, scale 0 to 100 (0 no effect, 100 complete control), read-out: Oat, Wild plant response rating
Method in brief: as §1

[12] = tested on: barnyardgrass (Echinochloa crus-galli); experiment: Test B flooded paddy test; conditions: Echinochloa crus-galli, Flood, scale 0 to 100, read-out: Plant response rating, Barnyardgrass
Method in brief: (§2)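 Rice, umbrella sedge, duck salad and barnyardgrass grown to 2-leaf stage under flooded paddy conditions and treated with formulated test chemicals. Kept in greenhouse 13–15 days, then visually rated against untreated controls on a 0–100 scale (0 no effect, 100 complete control).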

[13] = tested on: duck salad (Heteranthera limosa); experiment: Test B flooded paddy test; conditions: Heteranthera limosa, Flood, scale 0 to 100, read-out: Plant response rating, Ducksalad
Method in brief: as §2

rice (Oryza sativa) = experiment: Test B flooded paddy test; conditions: Oryza sativa, Flood, scale 0 to 100, read-out: Plant response rating, Rice
Method in brief: as §2

[14] = tested on: umbrella sedge (Cyperus difformis); experiment: Test B flooded paddy test; conditions: Cyperus difformis, Flood, scale 0 to 100, read-out: Plant response rating, Sedge, Umbrella
Method in brief: as §2

[15] = post-emergence, Postemergence, scale 0 to 100 (0 no effect, 100 complete control), read-out: Surinam Grass plant response rating
[16] = post-emergence, Postemergence, read-out: Barnyardgrass plant response rating
[17] = pre-emergence, Preemergence, read-out: Plant response rating, Barnyardgrass
[18] = post-emergence, Postemergence, scale 0 to 100 (0 no effect, 100 complete control), read-out: Cocklebur plant response rating
[19] = post-emergence, Postemergence, scale 0 to 100 (0 no effect, 100 complete control), read-out: Crabgrass plant response rating
[20] = post-emergence, Postemergence, scale 0 to 100 (0 no effect, 100 complete control), read-out: Foxtail, Giant plant response rating
[21] = post-emergence, Postemergence, scale 0 to 100 (0 no effect, 100 complete control), read-out: Lambsquarters plant response rating
[22] = post-emergence, Postemergence, scale 0 to 100 (0 no effect, 100 complete control), read-out: Morningglory plant response rating
[23] = post-emergence, Postemergence, scale 0 to 100 (0 no effect, 100 complete control), read-out: Pigweed plant response rating
[24] = post-emergence, Postemergence, scale 0 to 100 (0 no effect, 100 complete control), read-out: Velvetleaf plant response rating
[25] = post-emergence, Postemergence, read-out: Wheat plant response rating
[26] = pre-emergence, Preemergence, read-out: Plant response rating, Wheat

SMILES: Nc1nc(C2CC2)nc(C(=O)OCc2ccccc2)c1Cl [Compound 78, phenylmethyl 6-amino-5-chloro-2-cyclopropyl-4-pyrimidinecarboxylate]
- pest or weed control at 125 g/ha [1, 15]: 80%
- pest or weed control at 62 g/ha [1, 15]: 60%
- pest or weed control at 125 g/ha ([1]; pre-emergence, Preemergence, scale 0 to 100 (0 no effect, 100 complete control), read-out: Plant response rating, Surinam Grass): 90%
- pest or weed control at 62 g/ha ([1]; pre-emergence, Preemergence, scale 0 to 100, 0 no effect, 100 complete control, read-out: Plant response rating, Surinam Grass): 60%
- pest or weed control at 62 g/ha [2, 16]: 80%
- pest or weed control at 125 g/ha [2, 16]: 90%
- pest or weed control at 62 g/ha [2, 17]: 60%
- pest or weed control at 125 g/ha [2, 17]: 70%
- pest or weed control at 62 g/ha [3, 18]: 100%
- pest or weed control at 125 g/ha [3, 18]: 100%
- pest or weed control at 62 g/ha ([3]; pre-emergence, Preemergence, scale 0 to 100, 0 no effect, 100 complete control, read-out: Plant response rating, Cocklebur): 80%
- pest or weed control at 125 g/ha ([3]; pre-emergence, Preemergence, scale 0 to 100 (0 no effect, 100 complete control), read-out: Plant response rating, Cocklebur): 100%
- plant injury at 62 g/ha (corn (Zea mays); post-emergence, Postemergence, 62 g ai/ha, scale 0 to 100 (0 no effect, 100 complete control), read-out: Corn plant response rating): 40%
- plant injury at 125 g/ha (corn (Zea mays); post-emergence, Postemergence, 125 g ai/ha, scale 0 to 100 (0 no effect, 100 complete control), read-out: Corn plant response rating): 80%
- Corn plant response rating (crop injury, 0 = no effect, 100 = complete kill) at 62 g/ha (corn (Zea mays); pre-emergence, Preemergence, 62 g ai/ha, scale 0 to 100, 0 no effect, 100 complete control): 30%
- Corn plant response rating (crop injury, 0 = no effect, 100 = complete kill) at 125 g/ha (corn (Zea mays); pre-emergence, Preemergence, 125 g ai/ha, scale 0 to 100 (0 no effect, 100 complete control)): 70%
- pest or weed control at 62 g/ha [4, 19]: 60%
- pest or weed control at 125 g/ha [4, 19]: 70%
- pest or weed control at 62 g/ha ([4]; pre-emergence, Preemergence, scale 0 to 100, 0 no effect, 100 complete control, read-out: Plant response rating, Crabgrass): 80%
- pest or weed control at 125 g/ha ([4]; pre-emergence, Preemergence, scale 0 to 100 (0 no effect, 100 complete control), read-out: Plant response rating, Crabgrass): 90%
- pest or weed control at 125 g/ha [5, 20]: 70%
- pest or weed control at 62 g/ha [5, 20]: 60%
- pest or weed control at 125 g/ha ([5]; pre-emergence, Preemergence, scale 0 to 100 (0 no effect, 100 complete control), read-out: Plant response rating, Foxtail, Giant): 70%
- pest or weed control at 62 g/ha ([5]; pre-emergence, Preemergence, scale 0 to 100, 0 no effect, 100 complete control, read-out: Plant response rating, Foxtail, Giant): 20%
- pest or weed control at 62 g/ha [6, 21]: 100%
- pest or weed control at 125 g/ha [6, 21]: 100%
- pest or weed control at 62 g/ha ([6]; pre-emergence, Preemergence, scale 0 to 100, 0 no effect, 100 complete control, read-out: Plant response rating, Lambsquarters): 90%
- pest or weed control at 125 g/ha ([6]; pre-emergence, Preemergence, scale 0 to 100 (0 no effect, 100 complete control), read-out: Plant response rating, Lambsquarters): 100%
- pest or weed control at 62 g/ha [7, 22]: 100%
- pest or weed control at 125 g/ha [7, 22]: 100%
- pest or weed control at 62 g/ha ([7]; pre-emergence, Preemergence, scale 0 to 100, 0 no effect, 100 complete control, read-out: Plant response rating, Morningglory): 80%
- pest or weed control at 125 g/ha ([7]; pre-emergence, Preemergence, scale 0 to 100 (0 no effect, 100 complete control), read-out: Plant response rating, Morningglory): 100%
- pest or weed control at 62 g/ha [8, 23]: 80%
- pest or weed control at 125 g/ha [8, 23]: 100%
- pest or weed control at 62 g/ha ([8]; pre-emergence, Preemergence, scale 0 to 100, 0 no effect, 100 complete control, read-out: Plant response rating, Pigweed): 100%
- pest or weed control at 125 g/ha ([8]; pre-emergence, Preemergence, scale 0 to 100 (0 no effect, 100 complete control), read-out: Plant response rating, Pigweed): 100%
- pest or weed control at 62 g/ha [9, 24]: 70%
- pest or weed control at 125 g/ha [9, 24]: 80%
- pest or weed control at 62 g/ha ([9]; pre-emergence, Preemergence, scale 0 to 100, 0 no effect, 100 complete control, read-out: Plant response rating, Velvetleaf): 70%
- pest or weed control at 125 g/ha ([9]; pre-emergence, Preemergence, scale 0 to 100 (0 no effect, 100 complete control), read-out: Plant response rating, Velvetleaf): 90%
- plant injury at 62 g/ha [10, 25]: 50%
- plant injury at 125 g/ha [10, 25]: 70%
- plant injury at 62 g/ha [10, 26]: 30%
- plant injury at 125 g/ha [10, 26]: 70%
- pest or weed control at 62 g/ha ([11]; 62 g ai/ha): 20%
- pest or weed control at 125 g/ha ([11]; 125 g ai/ha): 40%
- pest or weed control at 62 g/ha (wild oat (Avena fatua); 62 g ai/ha): 50%
- pest or weed control at 125 g/ha (wild oat (Avena fatua); 125 g ai/ha): 70%
- pest or weed control at 125 g/ha ([12]; 125 g ai/ha): 0%
- pest or weed control at 500 g/ha ([12]; 500 g ai/ha): 40%
- pest or weed control at 125 g/ha ([13]; 125 g ai/ha): 20%
- pest or weed control at 500 g/ha ([13]; 500 g ai/ha): 70%
- plant injury at 125 g/ha (rice (Oryza sativa); 125 g ai/ha): 20%
- plant injury at 500 g/ha (rice (Oryza sativa); 500 g ai/ha): 40%
- pest or weed control at 125 g/ha ([14]; 125 g ai/ha): 10%
- pest or weed control at 500 g/ha ([14]; 500 g ai/ha): 50%
